This is an account of results in PMC10257182, “Discovery of senolytics using machine learning” (Nature Communications, 2023).

Several values for one entry are separate records, joined by “and”; a condition that tells them apart may be missing. Equal entries are not always repeated. Where two headings read alike, the source gives them in different places.

This test relates to senescent IMR90 ER:RAS cells (4-OHT-induced). The experiment in a line: Nuclei count (Hoechst, high content imaging) senolytic assay, oncogene-induced senescence (OIS) model, senescent cells. In kind it is cell-based, human. Conditions: for viability at 10 µM / viability at 4.677 µM / viability at 2.188 µM / viability at 1 µM / viability at 0.4677 µM / viability at 0.2188 µM / viability at 0.1 µM / viability at 0.04677 µM / viability at 0.02188 µM / viability at 0.01 µM: Homo sapiens. The source says: To test for senolytic activity, we compared the effect of each compound on the total cell number (automated high content image-based analysis of total number of nuclei per well) in non-senescent and senescent IMR90 ER:RAS cultures treated with the top hits from the computational screen (Figs. 2e and 3a–d and Supplementary Fig. 4a–c). The drop in cell number compared to untreated controls is indicated by the nuclei count and reflects cell death[13],[15]. As positive control, we employed ouabain, a cardiac glycoside with well characterised senolytic activity.
We performed experimental validation of the compounds with z-score > 8 (Fig. 2e). […] We employed two cellular models of senescence: one of OIS and a second one of TIS. For the OIS case, we utilised IMR90 ER:RAS cells with 4-OHT at 100 nM. […] For the TIS model, we used A549 cells with etoposide at 100 μM. The exposure of the cells to etoposide lasted 48 h, after which period the cells were cultivated for a further three days with normal media.
IMR90 (CCL-186) human foetal lung fibroblasts and A549 (CCL-185) human lung adenocarcinoma cells were obtained from the American Type Culture Collection (ATCC, Manassas, VA). The cell lines were confirmed to be mycoplasma negative (Lonza MycoAlert, cat #LT07-118). IMR90 ER:RAS is a derivative of IMR90 cells expressing a switchable version of oncogenic H-Ras[84]. IMR90 ER:RAS and A549 cells were maintained in Dulbecco’s Modified Eagle Medium (DMEM, ThermoFisher) supplemented with foetal bovine serum (10%), L-glutamine (2 mM, ThermoFisher), and antibiotic-antimycotic solution (1%, ThermoFisher) and incubated under standard tissue culture conditions (37 °C and 5% CO2). For induction of the senescent phenotype, IMR90-ER:RAS cells were cultured in hydroxytamoxifen (4-OHT) (Sigma) added media at 100 nM final concentration. IMR90 were kept in culture for over 27 passages for replicative senescence. Cells were tested for mycoplasma on a regular basis.
Cells were seeded (50 μL per well) into 384-well plates (IMR90 ER:RAS cells in Nunc Optical Bottom Polybase Microplates [#142761, Thermo Scientific, Rochester, NY] and A549 cells in CELLSTAR Cell Culture Microplates [#781091, Greiner Bio-One, Kremsmünster, Austria]). Cells were incubated under standard tissue culture conditions for 24 h before the addition of compounds. Passage 14 IMR90 ER:RAS cells were seeded at 1300 cells per well in the control condition, and at 1600 cells per well in the senescent case. Passage 34 A549 cells were seeded at 7000 cells per well in the control condition, and at 10,000 cells per well in the senescent case.
Dose response plates were prepared with a DMSO control and a 10-point […] concentration range, and added to the compounds using a D300e digital dispenser (Tecan Trading AG, Switzerland) at a final concentration of between 10 μM and 10 nM. Every screened condition was carried out in triplicate. After 72 h of incubation with exposure to the compounds, cells were fixed by the addition of an equal volume of formaldehyde (8%, 50 μL; #BP531-500, Fisher Bioreagents, Fisher Scientific, Loughborough, Leicestershire) to the existing media, incubated at room temperature (30 min), and washed three times in phosphate-buffered saline (PBS). Cells were then permeabilised in Triton-X100 (0.1%, 50 μL) and incubated at room temperature (30 min) followed by three more washes with PBS.
Cells were stained with Hoechst 33342 for nuclei count (excitation/emission wavelength at 387/447 […], DAPI channel, original concentration at 10 mg/ml, final concentration at 2 μg/ml; H1399, Molecular Probes, Eugene, OR). The staining solution was prepared in bovine serum albumin solution (10%). The staining solution was added to each well (30 μL) and incubated in the dark at room temperature (30 min), followed by three washes with PBS and no final aspiration. Plates were foil sealed.

Setting [1] is: IMR-90, 72 h, Senescent, log (dose) [M] -5, 72 h, mean n=3 (Fig 3C), read-out: Mean % Cell Survival.
Where [2] appears, read: IMR-90, 72 h, Senescent, log (dose) [M] -5.33, 72 h, mean n=3 (Fig 3C), read-out: Mean % Cell Survival.
Setting [3] is: IMR-90, 72 h, Senescent, log (dose) [M] -5.66, 72 h, mean n=3 (Fig 3C), read-out: Mean % Cell Survival.
[4] abbreviates: IMR-90, 72 h, Senescent, log (dose) [M] -6, 72 h, mean n=3 (Fig 3C), read-out: Mean % Cell Survival.
[5] abbreviates: IMR-90, 72 h, Senescent, log (dose) [M] -6.33, 72 h, mean n=3 (Fig 3C), read-out: Mean % Cell Survival.
[6] abbreviates: IMR-90, 72 h, Senescent, log (dose) [M] -6.66, 72 h, mean n=3 (Fig 3C), read-out: Mean % Cell Survival.
Where [7] appears, read: IMR-90, 72 h, Senescent, log (dose) [M] -7, 72 h, mean n=3 (Fig 3C), read-out: Mean % Cell Survival.
[8] abbreviates: IMR-90, 72 h, Senescent, log (dose) [M] -7.33, 72 h, mean n=3 (Fig 3C), read-out: Mean % Cell Survival.
Setting [9] is: IMR-90, 72 h, Senescent, log (dose) [M] -7.66, 72 h, mean n=3 (Fig 3C), read-out: Mean % Cell Survival.
The mark [10] stands for this setting: IMR-90, 72 h, Senescent, log (dose) [M] -8, 72 h, mean n=3 (Fig 3C), read-out: Mean % Cell Survival.

On to `Cc1c(NC(=O)OC[C@@H]2COCCN2)cn2ncnc(Nc3ccc4c(cnn4Cc4cccc(F)c4)c3)c12.Cl.Cl` [BMS 599626 2HCL, BMS 599626 dihydrochloride], for which the “% Cell Survival” value was 148.305% and 168.559% and 104.914% (Senescent cells, log (dose) [M] -5, individual replicates, SUP FIG 4C); 96.2712% and 179.476% and 125.714% (Senescent cells, log (dose) [M] -5.33, individual replicates, SUP FIG 4C); 153.051% and 117.467% and 95.5429% (Senescent cells, log (dose) [M] -5.66, individual replicates, SUP FIG 4C); 117.797% and 133.042% and 86.6286% (Senescent cells, log (dose) [M] -6, individual replicates, SUP FIG 4C); 137.458% and 98.5444% and 96.6857% (Senescent cells, log (dose) [M] -6.33, individual replicates, SUP FIG 4C); 136.441% and 92.5764% and 82.2857% (Senescent cells, log (dose) [M] -6.66, individual replicates, SUP FIG 4C). The “% Cell Survival” value reads like this: (Senescent cells, log (dose) [M] -7, individual replicates, SUP FIG 4C) 136.102% and 95.3421% and 94.0571%; (Senescent cells, log (dose) [M] -7.33, individual replicates, SUP FIG 4C) 122.034% and 101.601% and 79.4286%; (Senescent cells, log (dose) [M] -7.66, individual replicates, SUP FIG 4C) 139.831% and 102.475% and 90.8571%; (Senescent cells, log (dose) [M] -8, individual replicates, SUP FIG 4C) 151.017% and 98.69% and 92.6857%; (Senescent, log (dose) [M] -5) 90.7857%; (Senescent, log (dose) [M] -5.33) 83.9286%. Also, the “% Cell Survival” value is, setting by setting: (Senescent, log (dose) [M] -5.66) 68.2857%; (Senescent, log (dose) [M] -6) 92.9286%; (Senescent, log (dose) [M] -6.33) 86.7857%; (Senescent, log (dose) [M] -6.66) 103.929%; (Senescent, log (dose) [M] -7) 113.571%; (Senescent, log (dose) [M] -7.33) 119.214%. For the same compound, the “% Cell Survival” value was found to be 109.286% (Senescent, log (dose) [M] -7.66) and 117.714% (Senescent, log (dose) [M] -8). In addition, the “Mean % Cell Survival” value reads like this: (Senescent, log (dose) [M] -5, 72 h, mean n=3 (Fig 3C)) 140.593%; (Senescent, log (dose) [M] -5.33, 72 h, mean n=3 (Fig 3C)) 133.82%; (Senescent, log (dose) [M] -5.66, 72 h, mean n=3 (Fig 3C)) 122.02%; (Senescent, log (dose) [M] -6, 72 h, mean n=3 (Fig 3C)) 112.489%; (Senescent, log (dose) [M] -6.33, 72 h, mean n=3 (Fig 3C)) 110.896%; (Senescent, log (dose) [M] -6.66, 72 h, mean n=3 (Fig 3C)) 103.768%. Also, the “Mean % Cell Survival” value stood at 108.5% (Senescent, log (dose) [M] -7, 72 h, mean n=3 (Fig 3C)); 101.021% (Senescent, log (dose) [M] -7.33, 72 h, mean n=3 (Fig 3C)); 111.054% (Senescent, log (dose) [M] -7.66, 72 h, mean n=3 (Fig 3C)); 114.131% (Senescent, log (dose) [M] -8, 72 h, mean n=3 (Fig 3C)).

With `Cc1c(-c2c(F)cc(C(N)=O)c3[nH]c4c(c23)CC[C@H](C(C)(C)O)C4)cccc1-n1c(=O)c2cccc(F)c2n(C)c1=O` [BMS 986142], the viability at 10 µM under setting [1] was found to be 97.6%. For the same compound, the viability at 4.677 µM is 143% under setting [2] and 133% (IMR-90, Senescent cells, log (dose) [M] -5.33, individual replicates, SUP FIG 4C, read-out: % Cell Survival). Also, under setting [3], the viability at 2.188 µM amounted to 96.7%. Besides, under setting [4], the viability at 1 µM is 102%. The viability at 0.4677 µM was 101% under setting [5] and 103% (IMR-90, Senescent cells, log (dose) [M] -6.33, individual replicates, SUP FIG 4C, read-out: % Cell Survival). Further, the viability at 0.2188 µM under setting [6] came out at 100% and the viability at 0.2188 µM (IMR-90, Senescent cells, log (dose) [M] -6.66, individual replicates, SUP FIG 4C, read-out: % Cell Survival) worked out at 105%. Also, the viability at 0.1 µM worked out at 98.6% under setting [7] and 91.6% (IMR-90, Senescent cells, log (dose) [M] -7, individual replicates, SUP FIG 4C, read-out: % Cell Survival). Moreover, under setting [8], the viability at 0.04677 µM was 109%. In addition, the viability at 0.02188 µM is, setting by setting: under setting [9], 95.3%; (IMR-90, Senescent cells, log (dose) [M] -7.66, individual replicates, SUP FIG 4C, read-out: % Cell Survival) 94.3%. In addition, the viability at 0.01 µM is 97.5% under setting [10]; 90.3% (IMR-90, Senescent cells, log (dose) [M] -8, individual replicates, SUP FIG 4C, read-out: % Cell Survival); 111% (IMR-90, Senescent, log (dose) [M] -8, read-out: % Cell Survival).

Take `O=c1oc2c(O)c(O)cc3c(=O)oc4c(O)c(O)cc1c4c23` [Ellagic acid, ellagic acid]: the viability at 10 µM under setting [1] is 109%. Besides, the viability at 4.677 µM under setting [2] was determined as 104%. Further, the viability at 2.188 µM is, setting by setting: under setting [3], 113%; (IMR-90, Senescent cells, log (dose) [M] -5.66, individual replicates, SUP FIG 4C, read-out: % Cell Survival) 108%. The viability at 1 µM was 110% under setting [4] and 117% (IMR-90, Senescent cells, log (dose) [M] -6, individual replicates, SUP FIG 4C, read-out: % Cell Survival). Besides, under setting [5], the viability at 0.4677 µM worked out at 123%. For the same compound, the viability at 0.2188 µM under setting [6] was found to be 122%. Under setting [7], the viability at 0.1 µM was 117%. Moreover, the viability at 0.04677 µM under setting [8] was determined as 122%. In addition, the viability at 0.02188 µM under setting [9] stood at 114%. Moreover, the viability at 0.01 µM under setting [10] was 113%.
